For assay [1], the system named is pathogen of the specimen. Nature of the assay: Traditional culture-based antimicrobial susceptibility test (comparison of Table 7). Format: cell-based. Particulars: E. coli isolate 1189. The procedure: Table 7 illustrates the results of an example antimicrobial agent susceptibility test of the current application versus a traditional culture-based antimicrobial agent susceptibility test at multiple incubation timepoints, in accordance with one or more embodiments of the disclosure. These specimens were tested with direct PCR (e.g., no extraction DNA purification step prior to PCR). […] Result Reporting to Healthcare Providers. The results from the antimicrobial exposure are reported to the ordering healthcare provider. This information can be utilized by the healthcare provider when selecting an antimicrobial regimen for their individual patient based on these individual specimen results and patient specific factors. […] The current standard of care for antimicrobial susceptibility testing involves the growth, isolation, and exposure of pathogens to antimicrobials. This traditional culture and sensitivity process can take multiple days to obtain results, limiting the ability of healthcare providers to receive timely results to make actionable changes in patient care or management. Healthcare providers desire a method to obtain antimicrobial susceptibility results with quicker turn-around-time. This application discloses a molecular-based phenotypic antimicrobial susceptibility method which involves pathogen exposure to a panel of antimicrobial agents at their specified minimum inhibitory concentration breakpoints for sensitivity. This method allows for more timely antimicrobial susceptibility results.

The subject of assay [2] is pathogen of the specimen. Nature of the assay: Molecular phenotypic antimicrobial susceptibility test with direct PCR at various incubation timepoints (Table 7). Format: cell-based. As to the method: Detection of Molecular Phenotypic Antimicrobial Susceptibility. Disclosed herein are the methods for the detection of phenotypic antimicrobial susceptibility via molecular methods. The present invention describes how a specimen 100 with a known microbial load is incubated and then exposed to a panel of antimicrobial agents to determine sensitivity (prevention of growth) or resistance (allowance of growth) to the specific antimicrobial agents tested utilizing molecular methods. Sample Collection. Specimens 100 are collected from patients using sterile collection processes that are employed in routine clinical care. Specimens are transported to the testing facility in boric acid preservative. […] The process for pathogen isolation includes steps of harvesting the pathogen (e.g., via centrifugation), isolating pathogen DNA via a DNA isolation and/or purification kit, and performing PCR on the pathogen DNA via PCR components (e.g., primers, enzymes, buffers) as would be known to the skilled artisan. […] This aliquot is used for antimicrobial susceptibility testing if indicated based on the pathogen detection results. […] Specimens 100 with lower pathogen loads could also be utilized in the antibiotic susceptibility phase of testing with or without a longer incubation period. […] Antimicrobial solutions are prepared at known concentrations. The specific antimicrobials and their concentrations are selected based on the pathogen of interest and the described antimicrobial resistance breakpoints for that specimen pathogen and antimicrobial combination. These antimicrobials have been selected based on those commonly utilized by healthcare providers in routine clinical care for the specific type of suspected infection. The number and types of antimicrobials utilized can be customized based on the infection source, pathogen detected, patient-specific factors such as allergies or other health conditions (e.g., chronic kidney disease or concurrent medication use), or healthcare provider preferences such as antimicrobial availability or cost. The antimicrobial solutions are prepared in liquid culture media (such as Muller Hinton Broth) to achieve the desired antimicrobial concentration and are then stored at −80° C. until use. For a given specimen, each antimicrobial is tested at a single or multiple antimicrobial concentration(s) which is its established breakpoints for sensitivity. The antimicrobial solutions are prepared and plated out for each specific pathogen. […] This allows for evaluation of pathogen load when no antimicrobial is present. Specimen Exposure to Antimicrobial Agents. The 1 mL aliquot of the specimen 100 previously mixed with culture media and incubated is obtained. Using optical density measurements as a guide, the specimen 100 is diluted to 0.5 McFarland. […] Antimicrobial exposure plates are typically placed into an incubator for 12-16 hours. […] Nucleic Acid Amplification of Antimicrobial Agent Exposed Pathogens. The antimicrobial exposure plate is removed after the period of incubation. The specimen then undergoes a purification or lysis step. For example, the specimen may undergo a purification step (e.g., magnetic bead-based or other separation protocol to isolate genetic material). In another example, the specimen may undergo a cell lysis step. For example, buffer (e.g., lysis buffer) may be added and incubated in the thermal cycler for preparation for direct PCR. Next, the specimen may undergo a polymerase chain reaction (PCR) testing protocol, whereby a semi-quantitative PCR method is utilized. This may be completed either with or without a specific extraction protocol step. The pathogens can be individually targeted and detected, or a universal genetic sequence can be utilized to detect the antimicrobial susceptibility of the specimen as a whole. The control wells are utilized as a threshold for determining antimicrobial sensitivity or resistance. […] Antimicrobial Susceptibility Result Interpretation.

With Amoxicillin/Clavulanate, the “Traditional Culture Result” value in assay [1] is on record as “Resistant”. In addition, the “Molecular Antimicrobial Susceptibility Result” value in assay [2] (E. coli isolate 1189, antibiotic incubation time 4 hours) was “Resistant”; in assay [2] (E. coli isolate 1189, antibiotic incubation time 6 hours), “Resistant”; in assay [2] (E. coli isolate 1189, antibiotic incubation time 8 hours), “Resistant”; in assay [2] (E. coli isolate 1189, antibiotic incubation time 10 hours), “Resistant”; in assay [2] (E. coli isolate 1189, antibiotic incubation time 14 hours), “Resistant”; in assay [2] (E. coli isolate 1189, antibiotic incubation time 16 hours), “Resistant”. Also, the “Ct at Sensitive Breakpoint” value in assay [2] (E. coli isolate 1189, antibiotic incubation time 4 hours, control average Ct […]) turned out to be 16.799; in assay [2] (E. coli isolate 1189, antibiotic incubation time 6 hours, control average Ct 16.992), 17.105; in assay [2] (E. coli isolate 1189, antibiotic incubation time 8 hours, control average Ct […]), 17.430; in assay [2] (E. coli isolate 1189, antibiotic incubation time 10 hours, control average Ct 15.995), 15.606; in assay [2] (E. coli isolate 1189, antibiotic incubation time 14 hours, control average Ct 15.826), 14.226; in assay [2] (E. coli isolate 1189, antibiotic incubation time 16 hours, control average Ct 14.880), 14.825.

For the origin of these results see patent publication US20250290117A1, “MOLECULAR PHENOTYPIC ANTIMICROBIAL SUSCEPTIBILITY TESTING” (priority 2024, published 2025).
